Eleven molecules from US10441576B2, “Substituted 1,2-dihydro-3H pyrrolo[1,2-c]imidazol-3 one antibacterials” (priority 2015, dated 2019) can be followed below.

Values after ≈ are worked out from the molar mass of the structure shown.

Common to all, as to type: cell-based
The subject of test [1] is wild-type E. coli A-1261. The test is described as follows: MIC against E. coli A-1261 in the absence or presence of alkaline phosphatase or esterase. On the procedure: (§1) Minimal Inhibitory Concentrations (MICs; mg/L) were determined in cation-adjusted Mueller-Hinton Broth by a microdilution method following the description given in “Methods for Dilution Antimicrobial Susceptibility Tests for Bacteria that Grow Aerobically”, Approved standard, 7th ed., Clinical and Laboratory Standards Institute (CLSI) Document M7-A7, Wayne, Pa., USA (2006).
All Example compounds were tested against wild-type E. coli A-1261 in the absence of alkaline phosphatase or esterase, in the presence of an alkaline phosphatase and in the presence of an esterase. The corresponding antibacterial test results are given in Table 2 hereafter (MICs in mg/L).

The test system of test [2] is K. pneumoniae A-651. The test is described as follows: Bacterial growth minimal inhibitory concentration (microdilution, cation-adjusted Mueller-Hinton Broth). The note with it: Klebsiella pneumoniae, A651; multiply resistant strain (in particular quinolone-resistant). On the procedure: as §1
(§2) All Reference Example compounds were tested against several Gram-negative bacteria. […] The corresponding antibacterial test results are given in Table 1 hereafter (MICs in mg/L).

Test [3] concerns P. aeruginosa ATCC27853. The description is as above. The note with it: Pseudomonas aeruginosa, quinolone-sensitive strain. The method, then: as §1, §2
Test [4] concerns E. coli ATCC25922. Described as above. The note with it: Escherichia coli, quinolone-sensitive strain. On the procedure:
as §1, §2

The test system of test [5] is wild-type E. coli A-1261. The description is as above. The note with it: Escherichia coli, quinolone-sensitive strain. The method, then: as §1, §2
[6] abbreviates: Escherichia coli; alkaline phosphatase 2 i.U./mL; read-out: MIC for E. coli A-1261 In the presence of an alkaline phosphatase (2 i.U./mL).
The mark [7] stands for this setting: Escherichia coli; esterase 10 i.U./mL; read-out: MIC for E. coli A-1261 In the presence of an esterase (10 i.U./mL).
The mark [8] stands for this setting: Escherichia coli; read-out: MIC for E. coli A-1261 In the absence of alkaline phosphatase or esterase.
Where [9] appears, read: Escherichia coli, read-out: MIC for E. coli A-1261 In the absence of alkaline phosphatase or esterase.
Setting [10] is: Escherichia coli, read-out: MIC for E. coli A-1261 In the presence of an alkaline phosphatase (2 i.U./mL).
[11] abbreviates: Escherichia coli, read-out: MIC for E. coli A-1261 In the presence of an esterase (10 i.U./mL).

Turning to `C[C@@](CCN1Cc2cc(C#CC#CC3(COC(=O)CN4CCOCC4)CC3)cn2C1=O)(C(=O)NO)S(C)(=O)=O` [Example 1, (R)-(1-((2-(4-(hydroxyamino)-3-methyl-3-(methylsulfonyl)-4-oxobutyl)-3-oxo-2,3-dihydro-1H-pyrrolo[1,2-c]imidazol-6-yl)buta-1,3-diyn-1-yl)cyclopropyl)methyl 2-morpholinoacetate], the MIC in test [1] (setting [6]) worked out at 1 µg/mL; in test [1] (setting [7]), 0.25 µg/mL; in test [1] (setting [8]), 2 µg/mL.

For `C[C@@](CCN1Cc2cc(C#CC#CC3(COC(=O)CCc4ccccc4OP(=O)(O)O)CC3)cn2C1=O)(C(=O)NO)S(C)(=O)=O` [Example 2, (R)-(1-((2-(4-(hydroxyamino)-3-methyl-3-(methylsulfonyl)-4-oxobutyl)-3-oxo-2,3-dihydro-1H-pyrrolo[1,2-c]imidazol-6-yl)buta-1,3-diyn-1-yl)cyclopropyl)methyl 3-(2-(phosphonooxy)phenyl)propanoate], the MIC in test [1] (setting [9]) is 8 µg/mL; in test [1] (setting [10]), 1 µg/mL; in test [1] (setting [11]), 1 µg/mL.

Take `C[C@@](CCN1Cc2cc(C#CC#CC3(CO)CC3)cn2C1=O)(C(=O)NOC(=O)CCc1ccccc1OP(=O)(O)O)S(C)(=O)=O` [Example 3, (R)-2-(3-((4-(6-((1-(hydroxymethyl)cyclopropyl)buta-1,3-diyn-1-yl)-3-oxo-1H-pyrrolo[1,2-c]imidazol-2(3H)-yl)-2-methyl-2-(methylsulfonyl)butanamido)oxy)-3-oxopropyl)phenyl dihydrogen phosphate]: the figures for the MIC in test [1] (setting [9]), in test [1] (setting [10]) and in test [1] (setting [11]) were 8 µg/mL, 0.5 µg/mL and 8 µg/mL, respectively.

With `C[C@@](CCN1Cc2cc(C#CC#C[C@H]3C[C@@H]3COP(=O)(O)O)cn2C1=O)(C(=O)NO)S(C)(=O)=O` [Example 4, ((1S,2S)-2-((2-((R)-4-(hydroxyamino)-3-methyl-3-(methylsulfonyl)-4-oxobutyl)-3-oxo-2,3-dihydro-1H-pyrrolo[1,2-c]imidazol-6-yl)buta-1,3-diyn-1-yl)cyclopropyl)methyl dihydrogen phosphate], the values for the MIC in test [1] (setting [6]), in test [1] (setting [7]) and in test [1] (setting [8]) were 0.25 µg/mL, over 8 µg/mL and over 8 µg/mL, respectively.

For the molecule `C[C@@](CCN1Cc2cc(C#CC#C[C@H]3C[C@@H]3COC(=O)CCc3ccccc3OP(=O)(O)O)cn2C1=O)(C(=O)NO)S(C)(=O)=O` [Example 5, ((1S,2S)-2-((2-((R)-4-(hydroxyamino)-3-methyl-3-(methylsulfonyl)-4-oxobutyl)-3-oxo-2,3-dihydro-1H-pyrrolo[1,2-c]imidazol-6-yl)buta-1,3-diyn-1-yl)cyclopropyl)methyl 3-(2-(phosphonooxy)phenyl)propanoate], the figures for the MIC in test [1] (setting [9]), in test [1] (setting [10]) and in test [1] (setting [11]) were 4 µg/mL, 0.25 µg/mL and 0.25 µg/mL, respectively.

Turning to `C[C@@](CCN1Cc2cc(C#CC#C[C@H]3C[C@]3(F)COP(=O)(O)O)cn2C1=O)(C(=O)NO)S(C)(=O)=O` [Example 6, ((1R,2R)-1-fluoro-2-((2-((R)-4-(hydroxyamino)-3-methyl-3-(methylsulfonyl)-4-oxobutyl)-3-oxo-2,3-dihydro-1H-pyrrolo[1,2-c]imidazol-6-yl)buta-1,3-diyn-1-yl)cyclopropyl)methyl dihydrogen phosphate], the MIC is 0.5 µg/mL in test [1] (setting [6]), over 8 µg/mL in test [1] (setting [7]) and over 8 µg/mL in test [1] (setting [8]).

With `C[C@@](CCN1Cc2cc(C#CC#CC3(CO)CC3)cn2C1=O)(C(=O)NOP(=O)(O)O)S(C)(=O)=O.N` [Example 7, mono-ammonium (R)-((4-(6-((1-(hydroxymethyl)cyclopropyl)buta-1,3-diyn-1-yl)-3-oxo-1H-pyrrolo[1,2-c]imidazol-2(3H)-yl)-2-methyl-2-(methylsulfonyl)butanamido)oxy)phosphonate], the values for the MIC in test [1] (setting [6]), in test [1] (setting [7]) and in test [1] (setting [8]) were 1 µg/mL, 4 µg/mL and 4 µg/mL, respectively.

In the case of `C[C@@](CCN1Cc2cc(C#CC#CC3(CO)CC3)cn2C1=O)(C(=O)NO)S(C)(=O)=O` [RE1, (R)—N-hydroxy-4-(6-((1-(hydroxymethyl)cyclopropyl)buta-1,3-diyn-1-yl)-3-oxo-1H-pyrrolo[1,2-c]imidazol-2(3H)-yl)-2-methyl-2-(methylsulfonyl)butanamide], the MIC in test [2] was determined as 1 µg/mL (≈ 2.31 µM); in test [3], 1 µg/mL (≈ 2.31 µM); in test [4], 0.5 µg/mL (≈ 1.15 µM); in test [5] it was 0.25 µg/mL (≈ 0.577 µM).

In the case of `C[C@@](CCN1Cc2cc(C#CC#C[C@H]3C[C@@H]3CO)cn2C1=O)(C(=O)NO)S(C)(=O)=O` [RE2, (R)—N-hydroxy-4-(6-(((1S,2S)-2-(hydroxymethyl)cyclopropyl)buta-1,3-diyn-1-yl)-3-oxo-1H-pyrrolo[1,2-c]imidazol-2(3H)-yl)-2-methyl-2-(methylsulfonyl)butanamide], the MIC amounted to 0.25 µg/mL (≈ 0.577 µM) in test [2], 0.25 µg/mL (≈ 0.577 µM) in test [3], 0.25 µg/mL (≈ 0.577 µM) in test [4] and 0.125 µg/mL (≈ 0.288 µM) in test [5].

Consider `C[C@@](CCN1Cc2cc(C#CC#C[C@H]3C[C@]3(F)CO)cn2C1=O)(C(=O)NO)S(C)(=O)=O` [RE3, (R)-4-(6-(((1R,2R)-2-fluoro-2-(hydroxymethyl)cyclopropyl)buta-1,3-diyn-1-yl)-3-oxo-1H-pyrrolo[1,2-c]imidazol-2(3H)-yl)-N-hydroxy-2-methyl-2-(methylsulfonyl)butanamide], for which the MIC is 0.5 µg/mL (≈ 1.11 µM) in test [2], 0.5 µg/mL (≈ 1.11 µM) in test [3], 0.25 µg/mL (≈ 0.554 µM) in test [4] and 0.25 µg/mL (≈ 0.554 µM) in test [5].

For “(R)-(1-((2-(4-(hydroxyamino)-3-methyl-3-(methylsulfonyl)-4-oxobutyl)-3-oxo-2,3-dihydro-1H-pyrrolo[1,2-c]imidazol-6-yl)buta-1,3-diyn-1-yl)cyclopropyl)methyl hydrogen sulfate [Example 8]”, in test [1] (absence of alkaline phosphatase or esterase), the “MIC for E. coli A-1261 In the absence of alkaline phosphatase or esterase” value worked out at 2 µg/mL. Further, the “MIC for E. coli A-1261 In the presence of an alkaline phosphatase (2 i.U./mL)” value in test [1] (alkaline phosphatase 2 i.U./mL) amounted to 2 µg/mL. The “MIC for E. coli A-1261 In the presence of an esterase (10 i.U./mL)” value in test [1] (esterase 10 i.U./mL) came to 2 µg/mL.
